The values that follow come from the NIST ThermoML archive (doi:10.1016/j.jct.2016.12.006).

A short description of this series: refractive index (Na D-line) (dimensionless). The settings on record: 303.15 K; 101.33 kPa; Liquid; Standard Abbe refractometry.

± gives the expanded uncertainty stated by the source.

As usually defined, the refractive index is the speed of light in vacuum divided by its phase velocity in the sample. As for `CCOC(C)=O` [ethyl acetate], the refractive index was determined as 1.3675 ± 0.004.
For `OCC(F)(F)C(F)F` [2,2,3,3-tetrafluoro-1-propanol] the value was 1.3196 ± 0.004; for `CC(=O)OC(C)C` [1-methylethyl ethanoate], 1.3701 ± 0.004.
